Experimental data from US20230398095A1, “THERAPEUTIC AGENT FOR TREATMENT OF AGE-RELATED MACULAR DEGENERATION” (priority 2022, published 2023).

System: Human Tenon's capsule fibroblasts (HTCF)
Test: Oxidative stressor dosage curve, cell metabolic activity (MTT) of HTCF
Type: cell-based
Conditions: one-hour incubation, dose-dependent, n=4
Description: The following preferred method was utilized in conducting the experiment: • 1) Culture cells (90% confluence) • 2) Load 5×10^4 cells/well in 24-well plates • 3) Change to serum-free medium overnight • 4) Treat cells • 5) Measure cell metabolic activity (MTT) or % cytotoxicity (LDH) • 6) Normalize results • 7) Replicate experiment with cell lines from different patients • 8) Conduct statistical analysis
1. Treat cells with serum free medium and tert-butyl hydroperoxide (t-BOOH) at 0 mM (VC), […], 0.1 mM, 0.5 mM, 1 mM and 2 mM for 30 min, 1 h, 2 h, 3 h
2. Measure cell metabolic activity with 3-(4,5-dimethylthiazol-2-yl)-2,5-diphenyltetrazolium bromide (MTT) assay
FIGS. 5A-5D show the cell metabolic activity of HTCF cells in response to treatment with tert-butyl hydroperoxide (t-BOOH).
Dose-dependent effect of a one-hour incubation.

With `CC(C)(C)OO` [tert-butyl hydroperoxide (t-BOOH), Tert-butyl hydroperoxide] the “cell metabolic activity versus control sample” value was “significant effect versus the control sample”.
